We go through eleven molecules from patent US20250313572A1, “MACROCYCLIC MCL-1 INHIBITORS AND METHODS OF USE” (AbbVie Inc., priority 2017, published 2025).

Where two headings read alike, the source gives them in different places.

In one assay the target is GST-MCL-1 (Homo sapiens, UniProt Q07820). Briefly: TR-FRET MCL-1 binding assay (competition with probe F-Bak). As to the method: Tb-anti-GST antibody was purchased from Invitrogen (Catalog No. PV4216).
For the assay, an acoustic dispenser was used to prepare dilution series from 10 mM test compounds in 100% DMSO and directly transfer 160 nL into low volume 384-well assay plates. 8 μL of a protein/probe/antibody mix was then added to each well resulting in final concentrations listed below: • Test compound: 11 three-fold dilutions beginning at 25 μM
The samples were then mixed on a shaker for 1 minute and incubated for an additional 2 hours at room temperature. For each assay plate, a probe/antibody and protein/antibody/probe mixture were included as a negative and a positive control, respectively. Fluorescence was measured on the Envision (Perkin Elmer) using a 340/35 nm excitation filter and 520/525 (F-Bak) and 495/510 nm (Tb-labeled anti-his antibody) emission filters. […] The TR-FRET assay can be performed in the presence of varying concentrations of human serum (HS) or fetal bovine serum (FBS). Compounds were tested both without HS and in the presence of 10% HS.
A general note: In TR-FRET formats the signal depends on donor and acceptor labels being close together.

The test system of assay [1] is NCI-H929 human multiple myeloma tumor cell line. Briefly: NCI-H929 cell viability assay (CellTiter-Glo, 24 hours). The note with it: Homo sapiens, NCI-H929, 24 h, read-out: H929 Viability IC50 (μM, 10% FBS), 10% FBS, 24 hours of compound treatment. It is filed as cell-based.
For assay [2], the system named is AMO-1 human multiple myeloma tumor cell line. Briefly: AMO-1 cell viability assay (CellTiter-Glo, 24 hours). It counts as cell-based. Particulars: Homo sapiens, AMO1, 24 h, read-out: AMO-1 Viability IC50 (μM, 10% FBS), 10% FBS, 24 hours of compound treatment.
Where [3] appears, read: MCL-1 Binding Ki (nM, 10% HS), in the presence of 10% HS (human serum).
[4] abbreviates: without HS, read-out: MCL-1 Binding Ki.

Chain of GST-MCL-1 (Q07820 whole entry): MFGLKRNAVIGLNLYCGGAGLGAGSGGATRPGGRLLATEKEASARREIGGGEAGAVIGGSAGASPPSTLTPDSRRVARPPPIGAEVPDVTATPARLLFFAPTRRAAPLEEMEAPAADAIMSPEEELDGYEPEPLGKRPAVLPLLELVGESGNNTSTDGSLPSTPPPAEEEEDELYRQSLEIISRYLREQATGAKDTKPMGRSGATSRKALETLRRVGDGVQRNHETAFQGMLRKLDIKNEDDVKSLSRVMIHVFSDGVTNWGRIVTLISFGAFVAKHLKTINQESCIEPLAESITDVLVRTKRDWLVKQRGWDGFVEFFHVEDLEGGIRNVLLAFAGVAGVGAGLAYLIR

Regarding `COCCOCCOCCOc1ccccc1-c1nccc(COc2ccc3cc2C[C@@H](C(=O)O)Oc2ncnc4sc(-c5ccc(F)cc5)c(c24)-c2ccc(c(Cl)c2C)O[C@H](CN2CCN(C)CC2)CO3)n1` (atropisomer, axis not shown) [Example 2, (7S,16R,21S)-19-chloro-1-(4-fluorophenyl)-10-{[2-(2-{2-[2-(2-methoxyethoxy)ethoxy]ethoxy}phenyl)pyrimidin-4-yl]methoxy}-20-methyl-16-[(4-methylpiperazin-1-yl)methyl]-7,8,15,16-tetrahydro-18,21-etheno-9,13-(metheno)-6,14,17-trioxa-2-thia-3,5-diazacyclononadeca[1,2,3-cd]indene-7-carboxylic Acid], the Ki – broadly, the dissociation constant of the complex between target and ligand, obtained from inhibition or displacement – on GST-MCL-1 (setting [3]) stood at 76 nM; at GST-MCL-1 (setting [4]) it was 4.1 nM. In addition, the results for the IC50 in assay [1] and in assay [2] were 0.276 µM and 0.21 µM, respectively.
As to `COCCOCCOCCOc1ccc(-c2nccc(COc3ccc4cc3C[C@H](C(=O)O)Oc3ncnc5sc(-c6ccc(F)cc6)c(c35)-c3ccc(c(Cl)c3C)O[C@H](CN3CCN(C)CC3)CO4)n2)cc1` (atropisomer, axis not shown) [Example 13, (7R,16R,21S)-19-chloro-1-(4-fluorophenyl)-10-{[2-(4-{2-[2-(2-methoxyethoxy)ethoxy]ethoxy}phenyl)pyrimidin-4-yl]methoxy}-20-methyl-16-[(4-methylpiperazin-1-yl)methyl]-7,8,15,16-tetrahydro-18,21-etheno-13,9-(metheno)-6,14,17-trioxa-2-thia-3,5-diazacyclononadeca[1,2,3-cd]indene-7-carboxylic Acid], the Ki on GST-MCL-1 (setting [3]) was 0.251 nM; at GST-MCL-1 (setting [4]), 0.054 nM. Also, the results for the IC50 in assay [1] and in assay [2] were 0.001 µM and 0.00046 µM, respectively.
Regarding `Cc1c2ccc(c1Cl)O[C@H](CN1CCN(C)CC1)COc1ccc(OCc3ccnc(-c4ccc(CCC(=O)O)cc4)n3)c(c1)C[C@H](C(=O)O)Oc1ncnc3sc(-c4ccc(F)cc4)c-2c13` (atropisomer, axis not shown) [Example 17, (7R,16R,21S)-10-({2-[4-(2-carboxyethyl)phenyl]pyrimidin-4-yl}methoxy)-19-chloro-1-(4-fluorophenyl)-20-methyl-16-[(4-methylpiperazin-1-yl)methyl]-7,8,15,16-tetrahydro-18,21-etheno-13,9-(metheno)-6,14,17-trioxa-2-thia-3,5-diazacyclononadeca[1,2,3-cd]indene-7-carboxylic Acid], the Ki on GST-MCL-1 (setting [3]) was 0.246 nM; on GST-MCL-1 (setting [4]), 0.015 nM. Further, the figures for the IC50 in assay [1] and in assay [2] were 0.0298 µM and 0.0155 µM, respectively.
In the case of `Cc1c2ccc(c1Cl)O[C@H](CN1CCN(C)CC1)COc1ccc(OCc3ccnc(-c4ccc(OC[C@H](O)CO)cc4)n3)c(c1)C[C@H](C(=O)O)Oc1ncnc3sc(-c4ccc(F)cc4)c-2c13` (atropisomer, axis not shown) [Example 18, (7R,16R,21S)-19-chloro-10-[(2-{4-[(2R)-2,3-dihydroxypropoxy]phenyl}pyrimidin-4-yl)methoxy]-1-(4-fluorophenyl)-20-methyl-16-[(4-methylpiperazin-1-yl)methyl]-7,8,15,16-tetrahydro-18,21-etheno-13,9-(metheno)-6,14,17-trioxa-2-thia-3,5-diazacyclononadeca[1,2,3-cd]indene-7-carboxylic Acid], the Ki at GST-MCL-1 (setting [3]) turned out to be 0.269 nM; on GST-MCL-1 (setting [4]), 0.011 nM. Also, the IC50 (commonly the concentration that gives 50% inhibition) is 0.00531 µM in assay [1] and 0.00295 µM in assay [2].
On to `COCCOCCOCCOCCOCCOC[C@H]1CN(c2nccc(COc3ccc4cc3C[C@H](C(=O)O)Oc3ncnc5sc(-c6ccc(F)cc6)c(c35)-c3c(C)c(Cl)c(c(Cl)c3C)O[C@H](CN3CCN(C)CC3)CO4)n2)CCO1` [Example 83, (7R,16R)-19,23-dichloro-1-(4-fluorophenyl)-10-({2-[(2R)-2-(2,5,8,11,14,17-hexaoxaoctadecan-1-yl)morpholin-4-yl]pyrimidin-4-yl}methoxy)-20,22-dimethyl-16-[(4-methylpiperazin-1-yl)methyl]-7,8,15,16-tetrahydro-18,21-etheno-13,9-(metheno)-6,14,17-trioxa-2-thia-3,5-diazacyclononadeca[1,2,3-cd]indene-7-carboxylic Acid], for which the IC50 in assay [1] amounted to 0.0026 µM.
In the case of `Cc1c(Cl)c2c(Cl)c(C)c1-c1c(-c3ccc(F)cc3)sc3ncnc(c13)O[C@@H](C(=O)O)Cc1cc(ccc1OCc1ccnc([C@H]3CC[C@H](OCCOCC4COCCO4)CC3)n1)OC[C@@H](CN1CCN(C)CC1)O2` (stereo partly drawn) [Example 92, (7R,16R)-19,23-dichloro-10-({2-[(1r,4r)-4-{2-[(1,4-dioxan-2-yl)methoxy]ethoxy}cyclohexyl]pyrimidin-4-yl}methoxy)-1-(4-fluorophenyl)-20,22-dimethyl-16-[(4-methylpiperazin-1-yl)methyl]-7,8,15,16-tetrahydro-18,21-etheno-13,9-(metheno)-6,14,17-trioxa-2-thia-3,5-diazacyclononadeca[1,2,3-cd]indene-7-carboxylic Acid], the IC50 in assay [1] was found to be 0.00031 µM; in assay [2] it was 0.000223 µM.
For `Cc1c(Cl)c2c(Cl)c(C)c1-c1c(-c3ccc(F)cc3)sc3ncnc(c13)O[C@@H](C(=O)O)Cc1cc(ccc1OCc1ccnc(-c3ccc(OCCN4CCOCC4)cc3)n1)OC[C@@H](CN1CCN(C)CC1)O2` [Example 168, (7R,16R)-19,23-dichloro-1-(4-fluorophenyl)-20,22-dimethyl-16-[(4-methylpiperazin-1-yl)methyl]-10-[(2-{4-[2-(morpholin-4-yl)ethoxy]phenyl}pyrimidin-4-yl)methoxy]-7,8,15,16-tetrahydro-18,21-etheno-13,9-(metheno)-6,14,17-trioxa-2-thia-3,5-diazacyclononadeca[1,2,3-cd]indene-7-carboxylic Acid], the Ki on GST-MCL-1 (setting [3]) came to 0.671 nM; at GST-MCL-1 (setting [4]), 0.025 nM.
Turning to `Cc1c(Cl)c2c(Cl)c(C)c1-c1c(-c3ccc(F)cc3)sc3ncnc(c13)O[C@@H](C(=O)O)Cc1cc(ccc1OCc1ccnc(-c3ccc(OC[C@@H]4CN(C)CCCO4)cc3)n1)OC[C@@H](CN1CCN(C)CC1)O2` [Example 173, (7R,16R)-19,23-dichloro-1-(4-fluorophenyl)-20,22-dimethyl-10-{[2-(4-{[(2S)-4-methyl-1,4-oxazepan-2-yl]methoxy}phenyl)pyrimidin-4-yl]methoxy}-16-[(4-methylpiperazin-1-yl)methyl]-7,8,15,16-tetrahydro-18,21-etheno-13,9-(metheno)-6,14,17-trioxa-2-thia-3,5-diazacyclononadeca[1,2,3-cd]indene-7-carboxylic Acid], the IC50 came to 0.00452 µM in assay [1] and 0.00114 µM in assay [2].
Turning to `Cc1c(Cl)c2c(Cl)c(C)c1-c1c(-c3ccc(F)cc3)sc3ncnc(c13)O[C@@H](C(=O)O)Cc1cc(ccc1OCc1ccnc(-c3ccc(O[C@H]4CO[C@H]5[C@@H]4OC[C@@H]5O)cc3)n1)OC[C@@H](CN1CCN(C)CC1)O2` [Example 174, (7R,16R)-19,23-dichloro-1-(4-fluorophenyl)-10-{[2-(4-{[(3S,3aR,6S,6aR)-6-hydroxyhexahydrofuro[3,2-b]furan-3-yl]oxy}phenyl)pyrimidin-4-yl]methoxy}-20,22-dimethyl-16-[(4-methylpiperazin-1-yl)methyl]-7,8,15,16-tetrahydro-18,21-etheno-13,9-(metheno)-6,14,17-trioxa-2-thia-3,5-diazacyclononadeca[1,2,3-cd]indene-7-carboxylic Acid], the inhibition constant (Ki) at GST-MCL-1 (setting [3]) was found to be 0.2 nM; on GST-MCL-1 (setting [4]), 0.008 nM.
As for `Cc1c(Cl)c2c(Cl)c(C)c1-c1c(-c3ccc(F)cc3)sc3ncnc(c13)O[C@@H](C(=O)O)Cc1cc(ccc1OCc1ccnc(OC[C@@H]3CN(C)CCCO3)n1)OC[C@@H](CN1CCN(C)CC1)O2` [Example 177, (7R,16R)-19,23-dichloro-1-(4-fluorophenyl)-20,22-dimethyl-10-[(2-{[(2S)-4-methyl-1,4-oxazepan-2-yl]methoxy}pyrimidin-4-yl)methoxy]-16-[(4-methylpiperazin-1-yl)methyl]-7,8,15,16-tetrahydro-18,21-etheno-13,9-(metheno)-6,14,17-trioxa-2-thia-3,5-diazacyclononadeca[1,2,3-cd]indene-7-carboxylic Acid], the figures for the half-maximal inhibitory concentration (IC50) in assay [1] and in assay [2] were 0.00929 µM and 0.00422 µM, respectively.
`COCCOCCOc1ccc(-c2ccccc2OC)nc1COc1ccc2cc1C[C@H](C(=O)O)Oc1ncnc3sc(-c4ccc(F)cc4)c(c13)-c1c(C)c(Cl)c(c(Cl)c1C)O[C@H](CN1CCN(C)CC1)CO2` [Example 178, (7R,16R)-19,23-dichloro-1-(4-fluorophenyl)-10-({3-[2-(2-methoxyethoxy)ethoxy]-6-(2-methoxyphenyl)pyridin-2-yl}methoxy)-20,22-dimethyl-16-[(4-methylpiperazin-1-yl)methyl]-7,8,15,16-tetrahydro-18,21-etheno-9,13-(metheno)-6,14,17-trioxa-2-thia-3,5-diazacyclononadeca[1,2,3-cd]indene-7-carboxylic Acid]: the IC50 in assay [1] turned out to be 0.37 µM; in assay [2], 0.152 µM.
